According to ChEMBL document CHEMBL4834430, “Design and Structure-Activity Relationships of Isothiocyanates as Potent and Selective N-Acylethanolamine-Hydrolyzing Acid Amidase Inhibitors” (J Med Chem, 2021):
Calls of active or inactive are those of the source. No cut-off for these calls is given here.

Key:
[1] = Half life in human liver microsomes at 1 uM in presence of NADPH by LC-MS/MS analysis; type: ADME, Microsome
[2] = Half life in rat liver microsomes at 1 uM in presence of NADPH by LC-MS/MS analysis; type: ADME, Microsome
[3] = Half life in mouse liver microsomes at 1 uM in presence of NADPH by LC-MS/MS analysis; type: ADME, Microsome
[4] = Drug concentration in plasma of CD-1 mouse at 2 mg/kg, iv administered as single cassette dose measured after 15 mins; type: ADME, organism-based
[5] = Drug concentration in plasma of CD-1 mouse at 8 mg/kg, po administered as single cassette dose measured after 60 mins; type: ADME, organism-based
[6] = AUC in CD-1 mouse plasma at 2 mg/kg, iv measured up to 8 hrs; type: ADME, organism-based; design: route intravenous, dose 2 mg/kg, time <=8
[7] = Clearance in CD-1 mouse plasma at 2 mg/kg, iv measured up to 8 hrs; type: ADME, organism-based
[8] = MRT in CD-1 mouse plasma at 2 mg/kg, iv measured up to 8 hrs; type: ADME, organism-based
[9] = Half life in CD-1 mouse plasma at 2 mg/kg, iv measured up to 8 hrs; type: ADME, organism-based
[10] = AUC in CD-1 mouse plasma at 8 mg/kg, po measured up to 8 hrs; type: ADME, organism-based; design: route oral, dose 8 mg/kg, time <=8
[11] = Clearance in CD-1 mouse plasma at 8 mg/kg, po measured up to 8 hrs; type: ADME, organism-based
[12] = MRT in CD-1 mouse plasma at 8 mg/kg, po measured up to 8 hrs; type: ADME, organism-based
[13] = Half life in CD-1 mouse plasma at 8 mg/kg, po measured up to 8 hrs; type: ADME, organism-based
[14] = Oral bioavailability in CD-1 mouse plasma at 8 mg/kg measured up to 8 hrs; type: ADME, organism-based
[15] = AUC in CD-1 mouse brain at 8 mg/kg, po measured up to 6 hrs; type: ADME, organism-based; design: route oral, dose 8 mg/kg, time <=6
[16] = Ratio of drug concentration in brain to plasma in CD-1 mouse at 2 mg/kg, iv; type: ADME, organism-based; details: read-out: BPR
[17] = molecular target: Cannabinoid receptor 1 (Rattus norvegicus) (UniProt P20272); assay: Displacement of [3H]-CP55940 from rat forebrain CB1 receptor at 10 uM
[18] = molecular target: Cannabinoid receptor 2 (Homo sapiens) (UniProt P34972); assay: Displacement of [3H]-CP55940 from human CB2 receptor expressed in HEK293 cell membrane at 10 uM; type: cell membranes
Cannabinoid receptor 2 (Homo sapiens), sequence (P34972 whole entry): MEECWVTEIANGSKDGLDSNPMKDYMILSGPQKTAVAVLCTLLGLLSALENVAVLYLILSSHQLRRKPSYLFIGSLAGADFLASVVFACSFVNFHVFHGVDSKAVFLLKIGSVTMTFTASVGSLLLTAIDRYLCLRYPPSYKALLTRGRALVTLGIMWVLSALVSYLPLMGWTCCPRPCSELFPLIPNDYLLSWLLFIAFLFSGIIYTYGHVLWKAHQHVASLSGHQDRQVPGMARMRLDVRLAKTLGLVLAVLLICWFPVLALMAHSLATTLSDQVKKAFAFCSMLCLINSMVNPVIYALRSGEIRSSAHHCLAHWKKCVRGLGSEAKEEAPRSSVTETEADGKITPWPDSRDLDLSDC

[19] = molecular target: Cannabinoid receptor 2 (Mus musculus) (UniProt P47936); assay: Displacement of [3H]-CP55940 from mouse CB2 receptor expressed in HEK293 cell membrane at 10 uM; type: cell membranes
Cannabinoid receptor 2 (Mus musculus), sequence (P47936 whole entry): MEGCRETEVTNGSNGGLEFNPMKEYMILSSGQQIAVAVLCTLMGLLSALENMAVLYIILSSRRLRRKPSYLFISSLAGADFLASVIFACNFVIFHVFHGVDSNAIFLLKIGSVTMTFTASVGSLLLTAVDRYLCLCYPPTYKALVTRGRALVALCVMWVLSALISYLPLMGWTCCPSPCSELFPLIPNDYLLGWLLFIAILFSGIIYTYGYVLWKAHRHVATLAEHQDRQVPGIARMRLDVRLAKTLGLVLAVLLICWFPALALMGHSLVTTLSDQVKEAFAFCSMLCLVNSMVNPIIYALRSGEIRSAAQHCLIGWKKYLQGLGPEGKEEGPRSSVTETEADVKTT

[20] = molecular target: Sodium-dependent dopamine transporter (Homo sapiens) (UniProt Q01959); assay: Inhibition of DAT (unknown origin) at 10 uM
Sodium-dependent dopamine transporter (Homo sapiens), sequence (Q01959 whole entry): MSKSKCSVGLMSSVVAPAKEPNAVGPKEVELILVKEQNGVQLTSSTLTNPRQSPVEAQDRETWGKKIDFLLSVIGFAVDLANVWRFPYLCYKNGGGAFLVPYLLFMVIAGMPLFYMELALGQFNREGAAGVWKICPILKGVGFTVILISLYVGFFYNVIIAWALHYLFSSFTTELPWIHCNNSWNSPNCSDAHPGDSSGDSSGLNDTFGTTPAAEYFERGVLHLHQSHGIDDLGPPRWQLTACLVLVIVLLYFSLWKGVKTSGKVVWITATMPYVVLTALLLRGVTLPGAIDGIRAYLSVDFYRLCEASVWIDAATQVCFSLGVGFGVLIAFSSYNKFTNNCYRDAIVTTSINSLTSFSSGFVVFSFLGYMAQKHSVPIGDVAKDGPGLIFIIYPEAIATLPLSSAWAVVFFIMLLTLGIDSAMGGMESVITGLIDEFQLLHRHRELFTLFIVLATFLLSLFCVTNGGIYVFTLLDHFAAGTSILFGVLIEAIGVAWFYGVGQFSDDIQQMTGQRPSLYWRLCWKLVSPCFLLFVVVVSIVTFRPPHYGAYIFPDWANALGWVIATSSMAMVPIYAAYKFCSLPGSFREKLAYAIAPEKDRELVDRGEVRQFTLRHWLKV

[21] = molecular target: Sodium-dependent serotonin transporter (Homo sapiens) (UniProt P31645); assay: Inhibition of SERT (unknown origin) at 10 uM
Sodium-dependent serotonin transporter (Homo sapiens), sequence (P31645 whole entry, looked up): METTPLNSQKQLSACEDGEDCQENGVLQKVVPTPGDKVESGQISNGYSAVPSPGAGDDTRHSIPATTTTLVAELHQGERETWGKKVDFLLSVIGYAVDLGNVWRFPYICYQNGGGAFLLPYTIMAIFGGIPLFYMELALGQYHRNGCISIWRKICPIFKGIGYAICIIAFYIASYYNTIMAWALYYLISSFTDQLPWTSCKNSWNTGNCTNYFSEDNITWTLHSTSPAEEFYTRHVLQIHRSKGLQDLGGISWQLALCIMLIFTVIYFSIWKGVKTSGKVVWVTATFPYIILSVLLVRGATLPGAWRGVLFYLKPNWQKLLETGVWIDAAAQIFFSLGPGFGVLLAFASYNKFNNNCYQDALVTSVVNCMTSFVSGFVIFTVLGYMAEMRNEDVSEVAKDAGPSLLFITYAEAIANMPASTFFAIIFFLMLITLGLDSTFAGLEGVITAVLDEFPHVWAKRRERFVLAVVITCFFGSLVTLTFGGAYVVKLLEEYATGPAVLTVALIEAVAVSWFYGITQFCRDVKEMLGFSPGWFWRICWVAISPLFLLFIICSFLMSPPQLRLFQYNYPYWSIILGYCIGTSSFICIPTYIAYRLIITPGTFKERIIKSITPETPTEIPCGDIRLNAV

[22] = molecular target: T1, Cytochrome P450 2A6 (Homo sapiens, UniProt P11509); assay: Inhibition of CYP2A6 (unknown origin) at 10 uM; type: ADME
T1 sequence (P11509 whole entry): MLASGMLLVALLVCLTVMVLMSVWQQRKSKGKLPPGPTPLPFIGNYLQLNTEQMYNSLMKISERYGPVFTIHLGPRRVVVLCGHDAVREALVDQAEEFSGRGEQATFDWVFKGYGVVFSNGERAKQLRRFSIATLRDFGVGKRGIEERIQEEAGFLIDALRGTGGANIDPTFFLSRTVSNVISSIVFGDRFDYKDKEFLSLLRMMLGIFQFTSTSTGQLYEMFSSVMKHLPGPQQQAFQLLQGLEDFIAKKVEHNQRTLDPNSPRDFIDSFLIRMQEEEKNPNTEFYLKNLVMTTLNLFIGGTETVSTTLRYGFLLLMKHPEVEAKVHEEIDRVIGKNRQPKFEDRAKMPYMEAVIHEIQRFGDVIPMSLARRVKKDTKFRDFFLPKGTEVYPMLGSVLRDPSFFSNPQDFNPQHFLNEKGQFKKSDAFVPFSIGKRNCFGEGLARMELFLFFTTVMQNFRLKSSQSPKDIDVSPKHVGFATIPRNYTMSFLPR

[23] = molecular target: Cytochrome P450 2C9 (Homo sapiens, UniProt P11712); assay: Inhibition of CYP2C9 (unknown origin) at 10 uM; type: ADME
Cytochrome P450 2C9, sequence (P11712 whole entry): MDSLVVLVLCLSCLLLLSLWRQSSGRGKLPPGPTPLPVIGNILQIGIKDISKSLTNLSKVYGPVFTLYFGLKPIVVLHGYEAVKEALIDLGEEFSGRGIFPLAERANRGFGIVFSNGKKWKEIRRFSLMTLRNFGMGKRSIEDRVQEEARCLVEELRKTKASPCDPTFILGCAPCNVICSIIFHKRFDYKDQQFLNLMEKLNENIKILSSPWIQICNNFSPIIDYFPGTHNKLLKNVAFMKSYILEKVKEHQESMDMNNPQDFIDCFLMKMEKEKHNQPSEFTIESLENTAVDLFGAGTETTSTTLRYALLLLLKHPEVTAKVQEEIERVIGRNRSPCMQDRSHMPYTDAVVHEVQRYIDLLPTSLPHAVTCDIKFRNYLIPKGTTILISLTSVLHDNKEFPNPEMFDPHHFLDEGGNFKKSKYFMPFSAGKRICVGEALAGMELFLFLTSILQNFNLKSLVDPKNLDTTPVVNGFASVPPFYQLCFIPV

[24] = molecular target: T2, Cytochrome P450 1A2 (Homo sapiens, UniProt P05177); assay: Inhibition of CYP1A2 (unknown origin); type: ADME
T2 sequence (P05177 whole entry): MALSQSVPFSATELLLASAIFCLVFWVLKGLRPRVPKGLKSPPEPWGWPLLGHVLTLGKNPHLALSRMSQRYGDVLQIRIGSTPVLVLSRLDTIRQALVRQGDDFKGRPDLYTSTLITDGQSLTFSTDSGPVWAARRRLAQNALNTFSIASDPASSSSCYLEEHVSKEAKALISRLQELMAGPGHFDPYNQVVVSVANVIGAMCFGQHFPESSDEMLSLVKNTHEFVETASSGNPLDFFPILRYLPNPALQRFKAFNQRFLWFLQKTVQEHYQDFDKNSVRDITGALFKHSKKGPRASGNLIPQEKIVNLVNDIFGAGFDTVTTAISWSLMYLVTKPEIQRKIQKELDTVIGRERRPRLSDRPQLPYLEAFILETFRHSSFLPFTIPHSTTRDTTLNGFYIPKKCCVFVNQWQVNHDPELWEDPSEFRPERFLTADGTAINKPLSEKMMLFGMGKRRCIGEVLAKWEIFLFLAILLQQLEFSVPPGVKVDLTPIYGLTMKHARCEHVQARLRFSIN

[25] = molecular target: Cytochrome P450 2C19 (Homo sapiens, UniProt P33261); assay: Inhibition of CYP2C19 (unknown origin); type: ADME
Cytochrome P450 2C19, sequence (P33261 whole entry): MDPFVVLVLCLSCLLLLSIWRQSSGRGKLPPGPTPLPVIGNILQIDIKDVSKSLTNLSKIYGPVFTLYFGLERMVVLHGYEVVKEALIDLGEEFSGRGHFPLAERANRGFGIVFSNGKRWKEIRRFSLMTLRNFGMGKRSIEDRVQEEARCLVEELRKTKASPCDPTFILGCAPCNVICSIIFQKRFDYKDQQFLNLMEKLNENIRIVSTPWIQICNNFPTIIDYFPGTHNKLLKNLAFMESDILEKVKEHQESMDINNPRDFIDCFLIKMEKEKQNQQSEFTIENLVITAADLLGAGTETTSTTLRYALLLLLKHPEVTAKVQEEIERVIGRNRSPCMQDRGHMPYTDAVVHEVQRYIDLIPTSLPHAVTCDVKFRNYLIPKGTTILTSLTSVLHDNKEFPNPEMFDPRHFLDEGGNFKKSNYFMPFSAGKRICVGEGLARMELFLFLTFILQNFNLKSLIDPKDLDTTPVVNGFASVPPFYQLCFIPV

[26] = molecular target: Cytochrome P450 3A4 (Homo sapiens, UniProt P08684); assay: Inhibition of CYP3A4 (unknown origin); type: ADME
Cytochrome P450 3A4, sequence (P08684 whole entry): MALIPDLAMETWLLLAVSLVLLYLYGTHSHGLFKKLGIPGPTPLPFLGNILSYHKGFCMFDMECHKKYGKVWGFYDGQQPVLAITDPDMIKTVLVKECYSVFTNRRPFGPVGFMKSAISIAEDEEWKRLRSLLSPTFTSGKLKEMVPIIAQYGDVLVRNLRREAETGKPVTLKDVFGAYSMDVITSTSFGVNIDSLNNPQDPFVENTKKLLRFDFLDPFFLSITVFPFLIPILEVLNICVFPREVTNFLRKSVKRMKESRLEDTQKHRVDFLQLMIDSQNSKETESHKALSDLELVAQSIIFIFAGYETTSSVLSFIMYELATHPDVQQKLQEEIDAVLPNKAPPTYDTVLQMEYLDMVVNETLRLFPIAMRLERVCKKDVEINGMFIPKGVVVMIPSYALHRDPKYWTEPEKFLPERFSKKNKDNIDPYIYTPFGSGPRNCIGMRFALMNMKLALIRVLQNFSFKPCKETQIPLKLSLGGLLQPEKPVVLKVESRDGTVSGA

[27] = molecular target: Voltage-gated inwardly rectifying potassium channel KCNH2 (Homo sapiens, UniProt Q12809); assay: Inhibition of human ERG
Voltage-gated inwardly rectifying potassium channel KCNH2, sequence (Q12809 whole entry): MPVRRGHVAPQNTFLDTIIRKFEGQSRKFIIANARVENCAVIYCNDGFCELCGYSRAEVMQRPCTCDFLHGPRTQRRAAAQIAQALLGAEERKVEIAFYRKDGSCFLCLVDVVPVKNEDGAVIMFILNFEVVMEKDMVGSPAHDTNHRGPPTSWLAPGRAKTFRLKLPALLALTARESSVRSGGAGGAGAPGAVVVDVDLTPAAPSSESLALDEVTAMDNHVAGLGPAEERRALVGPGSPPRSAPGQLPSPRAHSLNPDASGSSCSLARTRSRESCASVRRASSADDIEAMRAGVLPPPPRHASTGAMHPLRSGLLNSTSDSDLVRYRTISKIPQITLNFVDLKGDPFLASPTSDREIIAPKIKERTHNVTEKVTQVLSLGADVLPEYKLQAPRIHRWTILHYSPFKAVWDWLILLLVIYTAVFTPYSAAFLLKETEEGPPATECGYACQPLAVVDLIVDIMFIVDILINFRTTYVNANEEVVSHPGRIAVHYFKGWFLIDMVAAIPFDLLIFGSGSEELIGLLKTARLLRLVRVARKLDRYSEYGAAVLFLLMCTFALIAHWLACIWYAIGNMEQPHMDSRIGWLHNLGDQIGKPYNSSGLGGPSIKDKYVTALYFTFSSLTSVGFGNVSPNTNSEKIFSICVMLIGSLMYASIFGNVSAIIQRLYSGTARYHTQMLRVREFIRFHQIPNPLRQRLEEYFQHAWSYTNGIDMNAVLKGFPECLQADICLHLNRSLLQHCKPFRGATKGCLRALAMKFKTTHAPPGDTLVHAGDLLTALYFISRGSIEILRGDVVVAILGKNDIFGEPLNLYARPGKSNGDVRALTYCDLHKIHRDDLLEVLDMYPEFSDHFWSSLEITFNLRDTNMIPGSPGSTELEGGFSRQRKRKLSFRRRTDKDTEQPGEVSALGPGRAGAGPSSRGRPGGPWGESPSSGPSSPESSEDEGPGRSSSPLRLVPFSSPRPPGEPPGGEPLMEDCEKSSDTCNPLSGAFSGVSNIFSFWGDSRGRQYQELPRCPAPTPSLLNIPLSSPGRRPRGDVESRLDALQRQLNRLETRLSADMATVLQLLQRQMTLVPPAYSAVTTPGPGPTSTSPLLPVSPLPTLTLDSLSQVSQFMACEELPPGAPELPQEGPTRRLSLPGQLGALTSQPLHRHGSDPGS

[28] = Mutagenecity in Salmonella typhimurium TA98 in absence of S9 fraction at 5 to 100 uM by Ames test; type: toxicity; details: salmonella enterica subsp. enterica serovar typhimurium, s9, 100 µM; dose 5-100 µM
[29] = Mutagenecity in Salmonella typhimurium TA100 in presence of S9 fraction at 5 to 100 uM by Ames test; type: toxicity, subcellular; details: salmonella enterica subsp. enterica serovar typhimurium, s9, 100 µM; dose 5-100 µM
[30] = Mutagenecity in Salmonella typhimurium TA100 in absence of S9 fraction at 5 to 100 uM by Ames test; type: toxicity; details: salmonella enterica subsp. enterica serovar typhimurium, s9, 100 µM; dose 5-100 µM
[31] = Mutagenecity in Salmonella typhimurium TA1535 in presence of S9 fraction at 5 to 100 uM by Ames test; type: toxicity, subcellular; details: salmonella enterica subsp. enterica serovar typhimurium, s9, 100 µM; dose 5-100 µM
[32] = Mutagenecity in Salmonella typhimurium TA1535 in absence of S9 fraction at 5 to 100 uM by Ames test; type: toxicity; details: salmonella enterica subsp. enterica serovar typhimurium, s9, 100 µM; dose 5-100 µM
[33] = Mutagenecity in Salmonella typhimurium TA1537 in presence of S9 fraction at 5 to 100 uM by Ames test; type: toxicity, subcellular; details: salmonella enterica subsp. enterica serovar typhimurium, s9, 100 µM; dose 5-100 µM
[34] = Ratio of drug concentration in brain to plasma in CD-1 mouse at 8 mg/kg, po; type: ADME, organism-based; details: read-out: BPR

## COc1ccc(-c2ccc(CO[C@H]3C[C@@H](N=C=S)C3)nc2)cc1F
[1]
  half-life at 1 µM: 16.7 min
[2]
  half-life at 1 µM: 19.2 min
[3]
  half-life at 1 µM: 28.2 min
[4]
  concentration at 0.25 h: 0.189 µg/mL
[5]
  concentration at 1 h: 0.054 µg/mL
[6]
  AUC at 8 h: 0.0785 µg·h/mL
[7]
  clearance: 24.7 L/h/kg
[8]
  MRT: 20.3 min
[9]
  half-life: 45.5 min
[10]
  AUC at 8 h: 0.0413 µg·h/mL
[11]
  CL/F: 166 L/h/kg
[12]
  MRT: 64.2 min
[13]
  half-life: 31.5 min
[14]
  bioavailability: 13%
[15]
  AUC at 6 h: 0.0103 µg·h/mL
[16]
  Kp: 3.8
[17]
  inhibition: inactive
[18]
  inhibition: inactive
[19]
  inhibition: inactive
[20]
  inhibition: inactive
[21]
  inhibition: inactive
[22]
  inhibition (INH): Not Active
[23]
  inhibition (INH): Not Active
[24]
  IC50: 1.8 µM
[25]
  IC50: 3.3 µM
[26]
  IC50: 2.6 µM
[27]
  IC50: 19 µM
[28]
  Activity: Non-Toxic
[29]
  Activity: Non-Toxic
[30]
  Activity: Non-Toxic
[31]
  Activity: Non-Toxic
[32]
  Activity: Non-Toxic
[33]
  Activity: Non-Toxic
[34]
  Kp: 0.25
